According to patent US8455534B2, “Estrogen receptor modulators and uses thereof” (Aragon Pharmaceuticals, Inc., priority 2010, dated 2013):

How the values were obtained:
MCF-7 cells = assay: Breast Cancer Cell Viability Assay (MCF-7, CellTiter-Glo); format: cell-based; details: 5 days' compound exposure; for IC50: Homo sapiens, MCF7, 120 h
Procedure: MCF-7 cells were adjusted to a concentration of 20,000 cells per mL in RPMI containing 10% FBS and 20 mM HEPES. 16 microliters of the cell suspension (320 cells) was added to each well of a 384 well plate, and the cells were incubated overnight to allow the cells to adhere. The following day an eleven point, serial semilog dilution of each compound was added to the cells in 16 μL at a final concentration ranging from 0.3-0.000003 μM. After 5 days' compound exposure, 16 μL of CellTiter-GLo (Promega, Madison Wis.) was added to the cells the relative luminescence units (RLUs) of each well was determined CellTiter-Glo added to 32 μL of medium without cells was used to obtain a background value. The Percent viability of each sample was determined as follows: (RLU sample-RLU background/RLU untreated cells-RLU background)×100=% viability.

ER-α = molecular target: T1, ER-α (Homo sapiens, UniProt P03372); assay: Breast Cancer Cell ER-α In Cell Western Assay (SP1); format: cell-based; details: MCF-7 cells, SP1 antibody, 4 or 24 hr post compound addition; for Emax: MCF7, read-out: ER-α In Cell Western Assay (SP1) Max Response; for DC50: read-out: ER-α In Cell Western Assay (SP1) IC50
T1 sequence (P03372 1-595): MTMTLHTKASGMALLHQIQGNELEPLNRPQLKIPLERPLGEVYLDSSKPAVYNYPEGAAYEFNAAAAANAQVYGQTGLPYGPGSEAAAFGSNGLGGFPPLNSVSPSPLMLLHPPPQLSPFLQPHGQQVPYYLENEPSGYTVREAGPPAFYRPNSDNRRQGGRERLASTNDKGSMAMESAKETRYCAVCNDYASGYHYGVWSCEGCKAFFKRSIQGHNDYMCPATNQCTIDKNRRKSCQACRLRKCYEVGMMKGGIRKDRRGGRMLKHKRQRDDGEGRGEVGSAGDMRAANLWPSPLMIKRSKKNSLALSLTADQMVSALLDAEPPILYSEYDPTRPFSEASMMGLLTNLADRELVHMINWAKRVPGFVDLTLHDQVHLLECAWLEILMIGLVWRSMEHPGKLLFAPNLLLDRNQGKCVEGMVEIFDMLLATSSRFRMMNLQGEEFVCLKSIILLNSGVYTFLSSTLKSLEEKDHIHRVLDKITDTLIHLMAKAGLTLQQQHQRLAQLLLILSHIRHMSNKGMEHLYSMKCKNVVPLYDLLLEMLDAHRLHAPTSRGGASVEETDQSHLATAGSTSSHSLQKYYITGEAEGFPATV
Procedure: MCF-7 cells were adjusted to a concentration of 200,000 cells per mL in RPMI containing 10% charcoal-stripped FBS and 20 mM HEPES. 16 microliters of the cell suspension (3200 cells) was added to each well of a poly-D-lysine 384 well plate, and the cells were incubated overnight to allow the cells to adhere. The following day an eleven point, serial semilog dilution of each compound was added to the cells in 16 μL at a final concentration ranging from 0.3-0.000003 μM. At 4 or 24 hr post compound addition, the cells were fixed (10% formalin in PBS) for 20 minutes. Cells were permeablized in PBS 0.1% Triton and blocked with LICOR blocking buffer (50 μL1/well, 90′). The wells were then incubated overnight at 4° C. with SP1 rabbit monoclonal Ab (Thermo Scientific) diluted 1:1000 in LICOR blocking buffer/0.1% Tween-20. Wells which were treated with blocking buffer with Tween but no antibody were used as a background control. Wells were washed with 0.1% Tween-20/PBS and then incubated in goat anti-rabbit IRDye™ 800CW (LICOR Inc.; 1:1000) and DRAQ5 DNA dye (1:2000 for 2 mM stock) diluted in LICOR blocking buffer containing 0.1% Tween-20 and 0.01% SDS for 60 minutes. Cells were washed (50 μl/well, 5′ each) in 0.1% Tween-20/PBS. Plates were scanned on a LICOR Odyssey infrared imaging system. Integrated intensities in the 800 nm channel and 700 nm channel were measured to determine levels of ER and DNA respectively. Percent ER levels were determined as follows: (Integrated intensity 800 nm sample/integrated intensity 700 nm sample)/(Integrated intensity 800 nm untreated cells/integrated intensity 700 nm untreated cells)×100=% ER levels.

Row | Structure (SMILES) | IC50 (MCF-7 cells) | Emax (ER-α) | DC50 (ER-α) | MCF7 Viability Assay Max Response (MCF-7 cells)
1 | O=C(O)/C=C/c1ccc(/C(=C(/CCCl)c2ccccc2)c2ccc3[nH]ncc3c2)cc1 [Compound 20, (E)-3-(4-((E)-4-Chloro-1-(1H-indazol-5-yl)-2-phenylbut-1-en-1-yl)phenyl)acrylic acid] | ≤ 100 nM | ≥ 40% | ≤ 100 nM | ++ (++ = a single % value ≧ 40%)
2 | O=C(O)/C=C/c1ccc(/C(=C(\c2ccccc2)C2CC2)c2ccc3[nH]ncc3c2)cc1 [Compound 24, (E)-3-(4-((E)-2-Cyclopropyl-1-(1H-indazol-5-yl)-2-phenylvinyl)phenyl)acrylic acid] | ≤ 100 nM | ≥ 40% | ≤ 100 nM | ++ (++ = a single % value ≧ 40%)
3 | CC/C(=C(/c1ccc(/C=C/C(=O)O)cc1)c1ccc2[nH]ncc2c1)c1ccc(F)cc1C [Compound 25, (E)-3-(4-((E)-2-(4-Fluoro-2-methylphenyl)-1-(1H-indazol-5-yl)but-1-en-1-yl)phenyl)acrylic acid] | ≤ 100 nM | ≥ 40% | ≤ 100 nM | ++ (++ = a single % value ≧ 40%)
4 | CC/C(=C(/c1ccc(/C=C/C(=O)O)cc1)c1ccc2[nH]ncc2c1)c1c(F)cccc1F [Compound 26, (E)-3-(4-((E)-2-(2,6-Difluorophenyl)-1-(1H-indazol-5-yl)but-1-en-1-yl)phenyl)acrylic acid] | ≤ 100 nM | ≥ 40% | ≤ 100 nM | ++ (++ = a single % value ≧ 40%)
5 | CC/C(=C(/c1ccc(/C=C/C(=O)O)cc1)c1ccc2[nH]ncc2c1)c1c(Cl)cccc1Cl [Compound 27, (E)-3-(4-((E)-2-(2,6-Dichlorophenyl)-1-(1H-indazol-5-yl)but-1-en-1-yl)phenyl)acrylic acid] | ≤ 100 nM | ≥ 40% | ≤ 100 nM | ++ (++ = a single % value ≧ 40%)
6 | [2H]C([2H])([2H])C/C(=C(/c1ccc(/C=C/C(=O)O)cc1)c1ccc2[nH]ncc2c1)c1ccccc1 [Compound 28, (E)-3-(4-((E)-4,4,4-Trideutero-1-(1H-indazol-5-yl)-2-phenylbut-1-en-1-yl)phenyl)acrylic acid] | ≤ 100 nM | ≥ 40% | – | ++ (++ = a single % value ≧ 40%)
7 | CC/C(=C(/c1ccc(/C=C/C(=O)O)cc1)c1ccc2[nH]ncc2c1)c1ccc(F)c(C)c1 [Compound 29, (E)-3-(4-((E)-2-(4-Fluoro-3-methylphenyl)-1-(1H-indazol-5-yl)but-1-en-1-yl)phenyl)acrylic acid] | ≤ 100 nM | ≥ 40% | ≤ 100 nM | ++ (++ = a single % value ≧ 40%)
8 | CC/C(=C(/c1ccc(/C=C/C(=O)O)cc1)c1ccc2[nH]ncc2c1)c1c(C)cccc1Cl [Compound 34, (E)-3-(4-((E)-2-(2-Chloro-6-methylphenyl)-1-(1H-indazol-5-yl)but-1-en-1 yl)phenyl)acrylic acid] | ≤ 100 nM | ≥ 40% | ≤ 100 nM | ++ (++ = a single % value ≧ 40%)
9 | CC/C(=C(/c1ccc(/C=C/C(=O)O)cc1)c1cc(Cl)c2[nH]ncc2c1)c1ccccc1 [Compound 35, (E)-3-(4-((E)-1-(7-Chloro-1H-indazol-5-yl)-2-phenylbut-1-en-1-yl)phenyl)acrylic acid] | ≤ 100 nM | ≥ 40% | ≤ 100 nM | ++ (++ = a single % value ≧ 40%)

Now from value to compound, other results behind:

Row | IC50 (MCF-7 cells) | Emax (ER-α) | DC50 (ER-α) | Structure (SMILES) | MCF7 Viability Assay Max Response (MCF-7 cells)
10 | ≤ 100 nM | ≥ 40% | ≤ 100 nM | CC/C(=C(/c1ccc(/C=C/C(=O)O)cc1)c1ccc2[nH]ncc2c1)c1cccc(F)c1 [Compound 17, (E)-3-(4-((E)-2-(3-Fluorophenyl)-1-(1H-indazol-5-yl)but-1-en-1-yl)phenyl)acrylic acid] | ++ (++ = a single % value ≧ 40%)
11 | ≤ 100 nM | ≥ 40% | ≤ 100 nM | CC/C(=C(/c1ccc(/C=C/C(=O)O)cc1)c1ccc2[nH]ncc2c1)c1ccccc1CC [Compound 18, (E)-3-(4-((E)-2-(2-Ethylphenyl)-1-(1H-indazol-5-yl)but-1-en-1-yl)phenyl)acrylic acid] | ++ (++ = a single % value ≧ 40%)
12 | ≤ 100 nM | ≥ 40% | ≤ 100 nM | CC/C(=C(/c1ccc(/C=C/C(=O)O)cc1)c1ccc2[nH]ncc2c1)c1ccccc1C(F)(F)F [Compound 19, (E)-3-(4-((E)-1-(1H-Indazol-5-yl)-2-(2-(trifluoromethyl)phenyl)but-1-en-1-yl)phenyl)acrylic acid] | ++ (++ = a single % value ≧ 40%)
13 | ≤ 100 nM | ≥ 40% | – | CC/C(=C(/c1ccc(/C=C/C(=O)O)cc1)c1ccc2[nH]ncc2c1)c1ccccc1C#N [Compound 21, (E)-3-(4-((E)-2-(2-Cyanophenyl)-1-(1H-indazol-5-yl)but-1-en-1-yl)phenyl)acrylic acid] | ++ (++ = a single % value ≧ 40%)
14 | ≤ 100 nM | ≥ 40% | ≤ 100 nM | CC/C(=C(/c1ccc(/C=C/C(=O)O)cc1)c1ccc2[nH]ncc2c1)c1ccc(F)cc1F [Compound 22, (E)-3-(4-((E)-2-(2,4-Difluorophenyl)-1-(1H-indazol-5-yl)but-1-en-1-yl)phenyl)acrylic acid] | ++ (++ = a single % value ≧ 40%)
15 | ≤ 100 nM | ≥ 40% | ≤ 100 nM | CC/C(=C(/c1ccc(/C=C/C(=O)O)cc1)c1ccc2[nH]ncc2c1)c1cccc(F)c1Cl [Compound 23, (E)-3-(4-((E)-2-(2-Chloro-3-fluorophenyl)-1-(1H-indazol-5-yl)but-1-en-1-yl)phenyl)acrylic acid] | ++ (++ = a single % value ≧ 40%)
16 | ≤ 100 nM | ≥ 40% | ≤ 100 nM | CC/C(=C(/c1ccc(/C=C/C(=O)O)cc1)c1ccc2[nH]ncc2c1)c1cc(F)ccc1C [Compound 30, (E)-3-(4-((E)-2-(5-Fluoro-2-methylphenyl)-1-(1H-indazol-5-yl)but-1-en-1-yl)phenyl)acrylic acid] | ++ (++ = a single % value ≧ 40%)
17 | ≤ 100 nM | ≥ 40% | ≤ 100 nM | CC/C(=C(/c1ccc(/C=C/C(=O)O)cc1)c1ccc2[nH]ncc2c1)c1cccc(F)c1F [Compound 31, (E)-3-(4-((E)-2-(2,3-Difluorophenyl)-1-(1H-indazol-5-yl)but-1-en-1-yl)phenyl)acrylic acid] | ++ (++ = a single % value ≧ 40%)
18 | ≤ 100 nM | ≥ 40% | ≤ 100 nM | CC/C(=C(/c1ccc(/C=C/C(=O)O)cc1)c1ccc2[nH]ncc2c1)c1cc(F)ccc1F [Compound 32, (E)-3-(4-((E)-2-(2,5-Difluorophenyl)-1-(1H-indazol-5-yl)but-1-en-1-yl)phenyl)acrylic acid] | ++ (++ = a single % value ≧ 40%)
19 | ≤ 100 nM | ≥ 40% | ≤ 100 nM | CC/C(=C(/c1ccc(/C=C/C(=O)O)cc1)c1ccc2[nH]ncc2c1)c1cc(F)ccc1Cl [Compound 33, (E)-3-(4-((E)-2-(2-Chloro-5-fluorophenyl)-1-(1H-indazol-5-yl)but-1-en-1-yl)phenyl)acrylic acid] | ++ (++ = a single % value ≧ 40%)
